# Tested on: virus IFV A/PR/8/34
# Assay: Cytopathic effect (CPE) method, antiviral activity against influenza virus in MDCK cells, CCK-8 cell viability
# Format: cell-based
# Settings: PR/8, MDCK, 120 h, read-out: EC50 (IFV A/PR/8/34) nM
row,Structure (SMILES),EC50 [nM]
1,"O=C(O)[C@H]1[C@H]2CC[C@H](CC2)[C@@H]1Nc1nc(-c2c[nH]c3ncc(F)cc23)nn2cc(C3CC3)cc12 [Example 8, (1R,2S,3S,4R)-3-((6-cyclopropyl-2-(5-fluoro-1H-pyrrolo[2,3-b]pyridin-3-yl)pyrrolo[2,1-f][1,2,4]triazin-4-yl)amino)bicyclo[2.2.2]octane-2-carboxylic acid]",0.8
2,"O=C(O)[C@H]1[C@H]2CC[C@H](CC2)[C@@H]1Nc1nc(-c2c[nH]c3ncc(F)cc23)nn2c(C(F)(F)F)ccc12 [Example 18, (1R,2S,3S,4R)-3-((2-(5-fluoro-1H-pyrrolo[2,3-b]pyridin-3-yl)-7-(trifluoromethyl)pyrrolo[2,1-f][1,2,4]triazin-4-yl)amino)bicyclo[2.2.2]octane-2-carboxylic acid]",0.3
3,"COCc1ccc2c(N[C@@H]3[C@@H](C(=O)O)[C@H]4CC[C@@H]3C3CC34)nc(-c3c[nH]c4ncc(F)cc34)nn12 (stereo partly drawn) [Example 20, (1R,5S,6S,7S)-7-((2-(5-fluoro-1H-pyrrolo[2,3-b]pyridin-3-yl)-7-(methoxymethyl)pyrrolo[2,1-f][1,2,4]triazin-4-yl)amino)tricyclo[3.2.2.0^2,4]nonane-6-carboxylic acid]",0.3
4,"O=C(O)[C@@H]1[C@@H](Nc2nc(-c3c[nH]c4ncc(F)cc34)nn3c(C(F)(F)F)ccc23)[C@@H]2CC[C@H]1C1CC12 (stereo partly drawn) [Example 30, (1R,5S,6S,7S)-7-((2-(5-fluoro-1H-pyrrolo[2,3-b]pyridin-3-yl)-7-(trifluoromethyl)pyrrolo[2,1-f][1,2,4]triazin-4-yl)amino)tricyclo[3.2.2.0^2′4]nonane-6-carboxylic acid]",0.37
5,"O=C(O)[C@@H]1[C@@H](Nc2nc(-c3n[nH]c4ncc(F)cc34)nn3c(C(F)(F)F)ccc23)[C@@H]2CC[C@H]1C1CC12 (stereo partly drawn) [Example 31, (1R,5S,6S,7S)-7-((2-(5-fluoro-1H-pyrazolo[3,4-b]pyridin-3-yl)-7-(trifluoromethyl)pyrrolo[2,1-f][1,2,4]triazin-4-yl)amino)tricyclo[3.2.2.0^2,4]nonane-6-carboxylic acid]",0.08
6,"COCc1ccc2c(N[C@@H]3[C@@H](C(=O)O)[C@H]4CC[C@@H]3C3CC34)nc(-c3n[nH]c4ncc(F)cc34)nn12 (stereo partly drawn) [Example 32, (1R,5S,6S,7S)-7-((2-(5-fluoro-1H-pyrazolo[3,4-b]pyridin-3-yl)-7-(methoxymethyl)pyrrolo[2,1-f][1,2,4]triazin-4-yl)amino)tricyclo[3.2.2.0^2,4]nonane-6-carboxylic acid]",0.24
7,"O=C(O)[C@@H]1[C@@H](Nc2nc(-c3n[nH]c4ncc(F)cc34)nn3c(C4CC4)ccc23)[C@@H]2CC[C@H]1C1CC12 (stereo partly drawn) [Example 38, (1R,5S,6S,7S)-7-((7-cyclopropyl-2-(5-fluoro-1H-pyrazolo[3,4-b]pyridin-3-yl)pyrrolo[2,1-f][1,2,4]triazin-4-yl)amino)tricyclo[3.2.2.0^2,4]nonane-6-carboxylic acid]",0.09

# Source: patent US20230265107A1, “PB2 INHIBITOR, AND PREPARATION METHOD THEREFOR AND USE THEREOF” (priority 2020, published 2023)
